Assay results reported in paper PMC5011342, “A high throughput drug screening assay to identify compounds that promote oligodendrocyte differentiation using acutely dissociated and purified oligodendrocyte precursor cells” (BMC Research Notes, 2016).
Where two headings read alike, the source gives them in different places.

Legend:
[1] = test system: acutely dissociated and purified rat OPCs; test: Acute OL differentiation assay (MBP expression/cell, immunofluorescent image quantification); format: cell-based; settings: for activation at 2 µM / activation at 10 µM / activation at 0.08 µM / activation at 0.4 µM: Rattus norvegicus
Outline: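 Oligodendrocyte precursor cells were enriched from P6-P7 Sprague–Dawley rat brains by immunopanning (RAN-2 and GalC depletion, O4 selection), plated at 5000 cells/well in serum-free, mitogen-free differentiation media on PDL/laminin 96-well view plates, centrifuged at 200×g, and pre-incubated 1–2 h before test compounds were added in quadruplicate. On DIV4, cells were fixed, stained for MBP and DAPI, imaged automatically, and MBP expression per cell was quantified.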

expanded OPCs = test: cells; settings: for viability at 0.1 µM / viability at 1 µM / viability at 10 µM: Rattus norvegicus, 72 h
Outline: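 Expanded OPCs seeded at 10,000 cells/well in differentiation media, then exposed to NCC library compounds at 10, 1 and 0.1 µM (quadruplicate, 0.1% DMSO) for three days. Viability read as alamarBlue fluorescence (560/590 nm) after 4 h at 37 °C; tunicamycin 5 ng/ml served as toxicity control.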

[2] = 2 uM test compound, relative to quetiapine, sheet "All OLga data", read-out: OL differentiation, 2 uM (% Quet)
[3] = 10 uM test compound, relative to quetiapine, sheet "All OLga data", read-out: OL differentiation, 10 uM (% Quet)
[4] = read-out: 0.1 µM (% DMSO), alamarBlue viability of expanded OPCs, compound at 0.1 µM, sheet All Tox data
[5] = read-out: 1 µM (% DMSO), alamarBlue viability of expanded OPCs, compound at 1 µM, sheet All Tox data
[6] = read-out: 10 µM (% DMSO), alamarBlue viability of expanded OPCs, compound at 10 µM, sheet All Tox data
[7] = 0.4 uM test compound, relative to quetiapine, sheet "All OLga data", read-out: OL differentiation, 0.4 uM (% Quet)
[8] = test compound at 2 uM, MBP expression relative to quetiapine, NCC library screen, sheet "All OLga data", read-out: 2 uM (% Quet)
[9] = test compound at 10 uM, MBP expression relative to quetiapine, NCC library screen, sheet "All OLga data", read-out: 10 uM (% Quet)
[10] = alamarBlue viability of expanded OPCs, compound at 0.1 µM, relative to DMSO control
[11] = alamarBlue viability of expanded OPCs, compound at 1 µM, relative to DMSO control
[12] = alamarBlue viability of expanded OPCs, compound at 10 µM, relative to DMSO control
[13] = read-out: 0.1 µM (% DMSO), alamarBlue viability, NCC library compound at 0.1 µM, sheet "All Tox data"
[14] = read-out: 1 µM (% DMSO), alamarBlue viability, NCC library compound at 1 µM, sheet "All Tox data"
[15] = read-out: 10 µM (% DMSO), alamarBlue viability, NCC library compound at 10 µM, sheet "All Tox data"
[16] = test compound at 0.08 uM, NCC library screen, sheet "All OLga data", relative to quetiapine, read-out: 0.08 uM (% Quet)
[17] = test compound at 0.4 uM, NCC library screen, sheet "All OLga data", relative to quetiapine, read-out: 0.4 uM (% Quet)
[18] = test compound at 2 uM, NCC library screen, sheet "All OLga data", relative to quetiapine, read-out: 2 uM (% Quet)
[19] = test compound at 10 uM, NCC library screen, sheet "All OLga data", relative to quetiapine, read-out: 10 uM (% Quet)

Structure (SMILES) | activation at 2 µM [1, 2] [%] | activation at 10 µM [1, 3] [%] | viability at 0.1 µM (expanded OPCs; [4]) [%] | viability at 1 µM (expanded OPCs; [5]) [%] | viability at 10 µM (expanded OPCs; [6]) [%] | 0.1 µM (% DMSO) (expanded OPCs; [10]) | 1 µM (% DMSO) (expanded OPCs; [11]) | 10 µM (% DMSO) (expanded OPCs; [12]) | also measured
CC(C)c1ccc2oc3nc(N)c(C(=O)O)cc3c(=O)c2c1 [Amlexanox] | -11.6 | -20 | 84.3 | 88.6 | 91.9 | – | – | – | –
COc1ccc(-c2cc(=O)c3c(OC)c(OC)c(OC)c(OC)c3o2)cc1OC [Nobiletin] | – | – | 76.3 | 28.1 | 28.1 | – | – | – | activation at 0.08 µM ([1]; 0.08 uM test compound, relative to quetiapine, sheet "All OLga data", read-out: OL differentiation, 0.08 uM (% Quet)): 8.4%; activation at 0.4 µM [1, 7]: -28.4%
CN(CCCN1c2ccccc2CCc2ccccc21)CC(=O)c1ccc(Cl)cc1 [Lofepramine] | -3.7 | – | 97.9 | 79.6 | 47.1 | – | – | – | activation at 0.4 µM [1, 7]: 1.3%
CC12CC3CC(C)(C1)CC(N)(C3)C2 [Memantine] | -9.2 | -28.3 | 97.8 | 93.2 | 59.7 | 93.3 | 84.1 | 67.0 | activation at 2 µM [1, 8]: -64.4%; activation at 10 µM [1, 9]: -100%
CO[C@H]1/C=C/O[C@@]2(C)Oc3c(C)c(O)c4c(O)c(c(/C=N/N5CCN(C6CCCC6)CC5)c(O)c4c3C2=O)NC(=O)/C(C)=C\C=C\[C@H](C)[C@H](O)[C@@H](C)[C@@H](O)[C@@H](C)[C@H](OC(C)=O)[C@@H]1C [Rifapentine] | -70.1 | – | – | – | – | 89.9 | 78.4 | 40.0 | activation at 0.4 µM [1, 7]: -16.7%; activation at 0.4 µM ([1]; test compound at 0.4 uM, MBP expression relative to quetiapine, NCC library screen, sheet "All OLga data", read-out: 0.4 uM (% Quet)): -18.6%; activation at 2 µM [1, 8]: -118%; viability at 0.1 µM (expanded OPCs; [13]): 94.8%; viability at 1 µM (expanded OPCs; [14]): 73%; viability at 10 µM (expanded OPCs; [15]): 25.3%
Oc1c(Cl)cc(Cl)c2cccnc12 [Chloroxine] | – | – | – | – | – | 24.3 | 10.2 | 8.9 | activation at 0.08 µM [1, 16]: -87.1%
CCN1CCCC1CNC(=O)c1cc(S(=O)(=O)CC)ccc1OC (stereo not shown) [Sultopride] | 7.7 | 0 | 93.7 | 89.8 | 96.2 | – | – | – | –
C[C@H]1CCC[C@H](O)CCCCCc2cc(O)cc(O)c2C(=O)O1 [Zeranol] | -37.2 | -51.9 | 83.6 | 85.8 | 69.3 | – | – | – | –
COc1cc(CNC(=O)CCCC/C=C\C(C)C)ccc1O [Zucapsaicin] | -17 | – | 85.6 | 72 | 36.9 | – | – | – | activation at 0.4 µM [1, 7]: 13.2%
CN1CC[C@]23c4c5ccc(O)c4O[C@H]2c2[nH]c4ccccc4c2C[C@@]3(O)[C@H]1C5 [Oxymorphindole] | – | – | – | – | – | – | – | – | activation at 0.08 µM [1, 16]: -8.6%; activation at 0.4 µM [1, 17]: -51.8%; viability at 0.1 µM (expanded OPCs; [13]): 85.7%; viability at 1 µM (expanded OPCs; [14]): 54.1%; viability at 10 µM (expanded OPCs; [15]): 12%
O=C(O)c1cc(-c2ccc(F)cc2F)ccc1O [Diflunisal] | – | – | – | – | – | 94.0 | 92.0 | 35.0 | activation at 0.4 µM [1, 17]: 0.3%; activation at 2 µM [1, 18]: 5.6%
C[C@]12C=CC(=O)C=C1CC[C@@H]1[C@@H]2[C@@H](O)C[C@@]2(C)[C@H]1CC[C@]2(O)C(=O)CO [Prednisolone] | – | – | – | – | – | 117.5 | 112.6 | 109.9 | activation at 2 µM [1, 18]: -21.9%; activation at 10 µM [1, 19]: -15.7%
C#C[C@]1(O)CC[C@H]2[C@@H]3CCc4cc(O)ccc4[C@H]3CC[C@@]21C [Ethinyl Estradiol] | -2.6 | – | 81 | 88 | 43.9 | – | – | – | activation at 0.4 µM [1, 7]: 7.3%
CC1(C)O[C@@H]2[C@@H](CO[C@@]3(COS(N)(=O)=O)OC(C)(C)O[C@@H]23)O1 [Topiramate] | 8.5 | 0.05 | 94 | 93.5 | 86.5 | – | – | – | –
CC1=C(C/C=C(\C)CCC[C@H](C)CCC[C@H](C)CCCC(C)C)C(=O)c2ccccc2C1=O [Phylloquinone] | – | – | – | – | – | – | – | – | 2 uM (% Quet) ([1]; test compound at 2 uM, NCC library screen, sheet "All OLga data", relative to quetiapine): 17.4 % Quet; 10 uM (% Quet) ([1]; test compound at 10 uM, NCC library screen, sheet "All OLga data", relative to quetiapine): -25.4 % Quet; 0.1 µM (% DMSO) (expanded OPCs): 96.6 % DMSO; 1 µM (% DMSO) (expanded OPCs): 89.8 % DMSO; 10 µM (% DMSO) (expanded OPCs): 87.4 % DMSO
Oc1ccc2c3c1O[C@H]1[C@@H](O)CC[C@@]4(O)[C@@H](C2)N(CC2CCC2)CC[C@]314 [Nalbufina] | – | – | – | – | – | – | – | – | activation at 2 µM ([1]; read-out: OL differentiation, 2 uM (% Quet)): -0.9%; activation at 10 µM ([1]; read-out: OL differentiation, 10 uM (% Quet)): 19.7%; viability at 0.1 µM (expanded OPCs; read-out: 0.1 µM (% DMSO)): 99%; viability at 1 µM (expanded OPCs; read-out: 1 µM (% DMSO)): 98.8%; viability at 10 µM (expanded OPCs; read-out: 10 µM (% DMSO)): 99.1%
CCOC(=O)CCC(=O)O[C@H]1[C@H](O[C@@H]2[C@@H](C)[C@H](O[C@H]3C[C@@](C)(OC)[C@@H](O)[C@H](C)O3)[C@@H](C)C(=O)O[C@H](CC)[C@@](C)(O)[C@H](O)[C@@H](C)C(=O)[C@H](C)C[C@@]2(C)O)O[C@H](C)C[C@@H]1N(C)C [Erythromycin Ethylsuccinate] | – | – | – | – | – | 95.4 | 87.4 | 75.9 | activation at 2 µM [1, 18]: 1%; activation at 10 µM [1, 19]: 8.7%
c1ccc2c3c([nH]c2c1)CNCC3 [Tryptoline] | – | – | – | – | – | – | – | – | activation at 2 µM [1, 18]: -12.9%; activation at 10 µM [1, 19]: -20.7%; viability at 0.1 µM (expanded OPCs; [13]): 103%; viability at 1 µM (expanded OPCs; [14]): 92.4%; viability at 10 µM (expanded OPCs; [15]): 62.6%
CN1[C@@H](CC(=O)c2ccccc2)CCC[C@H]1C[C@H](O)c1ccccc1 [Lobeline] | -5 | 0.65 | – | – | – | – | – | – | viability at 0.1 µM (expanded OPCs; [13]): 96.9%; viability at 1 µM (expanded OPCs; [14]): 89.9%; viability at 10 µM (expanded OPCs; [15]): 64.3%
CCc1c(C)[nH]c2c1C(=O)C(CN1CCOCC1)CC2 (stereo not shown) [Molindone] | – | – | – | – | – | 90.6 | 95.4 | 105.0 | activation at 2 µM [1, 8]: 1.6%; activation at 10 µM [1, 9]: -34.4%
